# According to patent US20260041770A1, “CELL MEMBRANE-ATTACHED HYALURONIC ACID-CD44 SPECIFIC BINDING REACTION POLYMER COMPOUND TO ENHANCE THE IMMUNE-ANTICANCER FUNCTION OF NATURAL KILLER CELLS” (DONGGUK UNIVERSITY INDUSTRY-ACADEMIC COOPERATION FOUNDATION, priority 2023, published 2026):
# Tested on: NK92-mi NK cells
# Experiment: NK cell surface modification efficiency (fluorescence intensity, cell coating efficacy)
# Format: cell-based
# Details: polymer 1.0 mg/mL, 30 minutes at room temperature
# Procedure: A polymer compound (HA-PEG-DSPE) was dissolved in MEM alpha at a concentration of 1.0 mg/mL, and 5×10^5 NK92-mi NK cells were evenly mixed with 100 μL of solution. The surface of NK cell was modified (HA-PEG-DSPE bound to NK cell) at room temperature for 30 minutes and then washed twice with MEM alpha. Cells were then lysed with 250 μL of RIPA buffer and stored at 4° C. for 30 minutes. Finally, 250 μL of distilled water was added, diluted, and transferred to 96-well to measure fluorescence intensity at 480/535 nm.
Substance,fluorescence intensity on NK cell,cell coating efficacy of NK cell
PEG600,fluorescence intensity is not substantially measured,
PEG2000,strong fluorescence intensity is measured on the surface of NK cell,"higher coating efficacy (cell coating efficacy, ng/10^5 cells) of NK cell compared to the polymer compound using PEG600 and PEG5000"
